Test results: US20050239791A1, “Substituted 1-heteroaryl-4-substituted piperazine and piperidine analogues” (priority 2004, published 2005)
Where two headings read alike, the source gives them in different places.

Target: MCH receptor (Macaca fascicularis, UniProt A0A2K5VT41)
Assay: Calcium mobilization assay (Example 6)
Format: cell-based, Cynomolgus macaque
Excerpt: This Example illustrates a representative functional assay for monitoring the response of cells expressing melanin concentrating hormone receptors to melanin concentrating hormone. This assay can also be used to determine if test compounds act as agonists or antagonists of melanin concentrating hormone receptors.
Chinese Hamster Ovary (CHO) cells (American Type Culture Collection; Manassas, Va.) are stably transfected with the MCH expression vector via calcium phosphate precipitation, and are grown to a density of 15,000 cells/well in FALCON™ black-walled, clear-bottomed 96-well plates (#3904, BECTON-DICKINSON, Franklin Lakes, N.J.) in Ham's F12 culture medium (MEDIATECH, Herndon, Va.) supplemented with 10% fetal bovine serum, 25 mM HEPES and 500 μg/mL (active) G418. Prior to running the assay, the culture medium is emptied from the 96 well plates. […]
Fluorescence response is monitored upon the addition of either […] or test compound by a FLIPR™ plate reader (Molecular Devices, Sunnyvale, Calif.) by excitation at 480 nm and emission at 530 nm.
In order to measure the ability of a test compound to antagonize the response of cells expressing MCH receptors to MCH, the EC50 of MCH is first determined. […]
Test compounds are dissolved in DMSO, diluted in 20 μL KRH buffer, and added to cells prepared as described above. […] Just prior to determining the fluorescence response, 100 μL human MCH diluted in KRH buffer to 2×EC50 is automatically added by the FLIPR instrument to each well of the 96 well plate for a final sample volume of 200 μL and a final MCH concentration of EC50. […] Typically, antagonists of the MCH receptor decrease the fluorescence response by about 20%, preferably by about 50%, and most preferably by at least 80% as compared to matched controls. IC50 values for MCHR antagonists are determined using SIGMAPLOT software (SPSS Inc., Chicago, Ill.) and standard techniques. […]

Chain of MCH receptor (A0A2K5VT41 70-422): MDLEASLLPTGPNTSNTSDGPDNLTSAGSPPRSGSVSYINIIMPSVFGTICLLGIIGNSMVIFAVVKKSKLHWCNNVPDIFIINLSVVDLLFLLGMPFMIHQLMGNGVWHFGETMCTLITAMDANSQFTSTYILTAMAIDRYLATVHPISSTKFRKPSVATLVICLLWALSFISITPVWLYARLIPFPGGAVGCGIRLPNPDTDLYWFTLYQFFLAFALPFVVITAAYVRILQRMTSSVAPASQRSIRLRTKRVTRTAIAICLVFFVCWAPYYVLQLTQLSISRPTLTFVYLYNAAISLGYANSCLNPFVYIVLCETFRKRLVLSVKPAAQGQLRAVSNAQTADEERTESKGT

SMILES | EC50 [nM] | EC50 (calcium mobilization (FLIPR, Fluo-3) in CHO cells stably transfected with the MCH expression vector, read-out: EC50, determined as described in Example 6) [nM]
COc1cc(N2CCN(C(C)c3ccnc4ccccc34)CC2)ccc1Cl (stereo not drawn) [Example 2, 4-{1-[4-(4-chloro-3-methoxyphenyl)piperazin-1-yl]ethyl}quinoline] | < 1000 | 
Cc1nccc(CN2CCC(O)(c3ccc(Cl)c(C(F)(F)F)c3)CC2)c1C [Example 3, 4-(4-chloro-3-trifluoromethylphenyl)-1-(2,3-dimethyl-pyridin-4-ylmethyl)-piperidin-4-ol] |  | < 1000
COc1cc(N2CCN(C(C)c3ccnc(C)c3C)CC2)ccc1Cl (stereo not drawn) [Example 1, 1-(4-chloro-3-methoxyphenyl)-4-[1-(2,3-dimethylpyridin-4-yl)-ethyl]-piperazine] | < 1000 | 
